From patent US20150344485A1, “BICYCLIC PYRIMIDONE COMPOUNDS AS INHIBITORS OF LP-PLA2” (GLAXOSMITHKLINE INTELLECTUAL PROPERTY DEVELOPMENT LIMITED, priority 2013, published 2015)
Where two headings read alike, the source gives them in different places.

Columns and labels:
[1] = target: T1, recombinant human Lp-PLA2 (Homo sapiens, UniProt Q13093); assay: Recombinant human Lp-PLA2 assay (rhLp-PLA2, PED6 assay); type: biochemical
T1 sequence (Q13093 22-441): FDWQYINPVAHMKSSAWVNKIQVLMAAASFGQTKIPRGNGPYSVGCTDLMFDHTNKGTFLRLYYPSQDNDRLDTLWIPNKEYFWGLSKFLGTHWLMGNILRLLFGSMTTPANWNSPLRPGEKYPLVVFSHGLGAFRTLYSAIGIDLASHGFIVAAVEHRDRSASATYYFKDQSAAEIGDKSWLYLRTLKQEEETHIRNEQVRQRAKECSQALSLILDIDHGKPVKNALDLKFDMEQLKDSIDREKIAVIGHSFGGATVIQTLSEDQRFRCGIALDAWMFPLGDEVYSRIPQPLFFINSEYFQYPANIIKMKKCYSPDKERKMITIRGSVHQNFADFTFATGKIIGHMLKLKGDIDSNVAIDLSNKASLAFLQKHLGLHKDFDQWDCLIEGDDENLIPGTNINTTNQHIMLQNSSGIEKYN
Source text: (1) Recombinant Human Lp-PLA2 Assay (rhLp-PLA2) (Also Referred to as “PED6” Assay)
N-((6-(2,4-dinitrophenyl)amino)-hexanoyl)-2-(4,4-difluoro-5,7-dimethyl-4-bora-3a,4a-diaza-s-indacene-3-pentanoyl)-1-hexadecanoyl-sn-glycero-3-phosphoethanolamine, triethylammonium salt (PED6) is a commercially available fluorescently-labeled phospholipid, which is commercially available from Invitrogene and Molecular Probes. There is a quenching para-nitro phenyl (PNP) group in the sn3 position and a Bodipy fluorescein (FL) group in the sn2 position. Upon cleavage with Lp-PLA2, the Bodipy FL group is liberated and then may result in an increase in fluorescence. Inhibitors of Lp-PLA2 therefore prevent this cleavage and no fluorescent increase is observed.
The PED6 assay was run as an unquenched 10 μL assay. The source plate containing the compounds to be tested was prepared by making 1:3 (by volume) serial dilution of the compounds within DMSO on 384-well microplate. Then, 0.01 μL of the compounds on compound source plate were transferred into 384 well Greiner 784076 (black) plates using ECHO liquid dispenser. 5 μL of recombinant human Lp-PLA2 enzyme (4 nM (or 110 pM) rhLp-PLA2 in assay buffer of 50 mM HEPES, pH 7.4, 150 mM NaCl, 1 mM CHAPS) was added to each well of the plate. Plates were centrifuged for 10 sec at 500 rpm. After 30 minutes preincubation, 5 μL of substrate (4 μM (or 5 μM) PED6 [from 5 mM DMSO stock] in assay buffer of 50 mM HEPES, pH 7.4, 150 mM NaCl, 1 mM CHAPS) was added to 384 well Greiner 784076 (black) plates. Plates were centrifuged for 10 sec at 500 rpm. The plate was covered to protect it from light and incubated for 20 min at room temperature. The plates were read for fluorescence intensity at ex: 480/em: 540 using ViewLux microplate imager for Envision spectrofluroimeters. pIC50 data, curve and QC analysis was conducted by using XL fit module in Excel.

Lp-PLA2 in human plasma = target: T2, Lp-PLA2 in human plasma (Homo sapiens, UniProt Q13093); assay: Lp-PLA2 human plasma assay (Thio-PAF assay); type: biochemical; conditions: pooled human plasma; read-out: pIC50 values in the thio-PAF assay (converted)
T2 construct: from tissue; host or cells: pooled human plasma
T2 sequence (Q13093 22-441): T1 sequence (Q13093 22-441)
Procedure, shortened: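 Pooled human plasma preincubated 30 min with compound, then 2-thio-PAF substrate added with CPM and NEM in 50 mM HEPES pH 7.4, 150 mM NaCl, 1 mM CHAPS. Quenched with TFA after 2 min, incubated 40 min at room temperature, and read by fluorescence at ex 380/em 485 nm. Values given as pIC50.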

[2] = read-out: pIC50 values in the recombinant human Lp-PLA2 assay (converted)

IC50 [1, 2] [nM]	IC50 (Lp-PLA2 in human plasma) [nM]	IC50 ([1]; read-out: rhLp-PLA2 (PED6 assay) (pIC50) (converted)) [nM]	SMILES
≤ 1	≤ 100		C[C@@H]1CCn2c(cc(OCc3ccc(Oc4ccc(C(F)(F)F)cc4)c(F)c3)nc2=O)N1C [E121, (R)-8-((3-fluoro-4-(4-(trifluoromethyl)phenoxy)benzyl)oxy)-1,2-dimethyl-3,4-dihydro-1H-pyrimido[1,6-a]pyrimidin-6(2H)-one]
≤ 1	≤ 100		C[C@@H]1CCn2c(cc(OCc3ccc(F)c(F)c3)nc2=O)N1 [E28, (R)-8-((3,4-difluorobenzyl)oxy)-2-methyl-3,4-dihydro-1H-pyrimido[1,6-a]pyrimidin-6(2H)-one]
≤ 1	≤ 10		C[C@@H]1CCn2c(cc(OCc3cc(F)c(Oc4ccc(F)c(Cl)c4)c(F)c3)nc2=O)N1C [E109]
≤ 1	≤ 10		C[C@H]1CCn2c(cc(OCc3ccc(Oc4ccc(F)c(F)c4)c(C#N)c3)nc2=O)N1C [E99, (S)-2-(3,4-difluorophenoxy)-5-(((1,2-dimethyl-6-oxo-2,3,4,6-tetrahydro-1H-pyrimido[1,6-a]pyrimidin-8-yl)oxy)methyl)benzonitrile]
≤ 1	≤ 10		C[C@H]1CCn2c(cc(OCc3ccc(Oc4ccc(C(F)(F)F)cc4)c(F)c3)nc2=O)N1C [E93, (S)-8-((3-fluoro-4-(4-(trifluoromethyl)phenoxy)benzyl)oxy)-1,2-dimethyl-3,4-dihydro-1H-pyrimido[1,6-a]pyrimidin-6(2H)-one]
≤ 1	≤ 10	0.0251	C[C@@H]1CCn2c(cc(OCc3cc(F)c(Oc4ccnc(C(F)(F)F)c4)c(F)c3)nc2=O)N1C [E144, (R)-8-((3,5-difluoro-4-((2-(trifluoromethyl)pyridin-4-yl)oxy)benzyl)oxy)-1,2-dimethyl-3,4-dihydro-1H-pyrimido[1,6-a]pyrimidin-6(2H)-one]
≤ 1	≤ 10		C[C@@H]1CCn2c(cc(OCc3ccc(Oc4ccc(C(F)(F)F)nc4)c(F)c3)nc2=O)N1C [E145, (R)-8-((3-fluoro-4-((6-(trifluoromethyl)pyridin-3-yl)oxy)benzyl)oxy)-1,2-dimethyl-3,4-dihydro-1H-pyrimido[1,6-a]pyrimidin-6(2H)-one]
≤ 1	≤ 100		C[C@@H]1CCn2c(cc(OCc3cc(F)c(Oc4ccc(C(F)(F)F)nc4)c(F)c3)nc2=O)N1C [E119, (R)-8-((3,5-difluoro-4-((6-(trifluoromethyl)pyridin-3-yl)oxy)benzyl)oxy)-1,2-dimethyl-3,4-dihydro-1H-pyrimido[1,6-a]pyrimidin-6(2H)-one]
≤ 1	≤ 100		C[C@H]1CCn2c(cc(OCc3cc(F)c(Oc4cnc(C(F)(F)F)nc4)c(F)c3)nc2=O)N1C [E104, (S)-8-((3,5-difluoro-4-((2-(trifluoromethyl)pyrimidin-5-yl)oxy)benzyl)oxy)-1,2-dimethyl-3,4-dihydro-1H-pyrimido[1,6-a]pyrimidin-6(2H)-one]
≤ 1	≤ 100		[2H]C([2H])(Oc1cc2n(c(=O)n1)CCC(C)(C)N2C)c1cccc(F)c1F [E73, 8-((2,3-difluorophenyl)dideuteromethoxy)-1,2,2-trimethyl-3,4-dihydro-1H-pyrimido[1,6-a]pyrimidin-6(2H)-one]
≤ 1	≤ 10		CN1c2cc(OCc3ccc(F)cc3)nc(=O)n2CCC1(C)C [E135, 8-((4-fluorobenzyl)oxy)-1,2,2-trimethyl-3,4-dihydro-1H-pyrimido[1,6-a]pyrimidin-6(2H)-one]
≤ 1	≤ 100		C[C@H]1CCn2c(cc(OCc3ccc(Oc4ccc(F)cc4)c(C#N)c3)nc2=O)N1C [E126, (S)-5-(((1,2-dimethyl-6-oxo-2,3,4,6-tetrahydro-1H-pyrimido[1,6-a]pyrimidin-8-yl)oxy)methyl)-2-(4-fluorophenoxyl)benzonitrile]
≤ 1	≤ 100		C[C@@H]1CCn2c(cc(OCc3ccc(Oc4ccc(F)c(Cl)c4)c(C#N)c3)nc2=O)N1C [E79, (R)-2-(3-chloro-4-fluorophenoxy)-5-(((1,2-dimethyl-6-oxo-2,3,4,6-tetrahydro-1H-pyrimido[1,6-a]pyrimidin-8-yl)oxy)methyl)benzonitrile]
